Patent US4061777A, “Vasodilatory terpeno-phenoxyalkylamines” (Mar-Pha, Societe d'Etudeet d'Exploitation de Marques Mar-Pha, priority 1974, dated 1977)
Converted amounts (≈) assume the structure as drawn.

What was measured:
[1] = tested on: heart taken from a rabbit; assay: Coronaro-dilatory effects in vitro on isolated rabbit heart (Langendorff's technique); settings: for Coronary output, Duration in mins.: duration of the variation in coronary output
Description: They were measured in vitro on a heart taken from a rabbit, according to Langendorff's technique. The terpenophenoxy alkylamines according to the invention are administered to the aortic canal at a constant volume of 1 cm^3 for 1 minute.
The following table indicates the increase in the coronary output and the duration of this variation, depending on the doses.

[2] = tested on: Escherichia coli; assay: Bacteriostatic activity by the method of streaks in gelose media (minimum inhibitory concentration), Escherichia coli; type: cell-based; settings: Escherichia coli (gram -ve)
Description: (§1) The bacteriostatic activity of the products according to the invention have been evaluated by the method of streaks in gelose media. This method comprises making increasing dilutions of the product to be tested, in nutritive gels poured in a Petri dish. The bacteria to be studied are introduced onto the geloses in parallel streaks by means of a platinum loop which has been immersed in a 24 hour old culture of the bacteria. […] The activity of the compounds has been studied vis a vis gram + ve (Staphylococcus aureus) and gram - ve (Escherichia coli) bacteria.

[3] = tested on: Staphylococcus aureus; assay: Bacteriostatic activity by the method of streaks in gelose media (minimum inhibitory concentration), Staphylococcus aureus; type: cell-based; settings: Staphylococcus aureus (gram +ve)
Description: as §1

[4] = Oryctolagus cuniculus, 1 min, dose 3 μg/cm^3, aortic canal, 1 cm^3 for 1 minute, increase (+), read-out: Coronary output, Variations in %
[5] = Oryctolagus cuniculus, 1 min, dose 10 μg/cm^3, aortic canal, 1 cm^3 for 1 minute, increase (+), read-out: Coronary output, Variations in %
[6] = Oryctolagus cuniculus, 1 min, dose 1 μg/cm^3, aortic canal, 1 cm^3 for 1 minute, increase (+), read-out: Coronary output, Variations in %

MIC [2] | MIC [3] | SMILES | activation at 3 µg/mL [1, 4] | activation at 10 µg/mL [1, 5] | Coronary output, Duration in mins. ([1]; dose 3 μg/cm^3) | Coronary output, Duration in mins. ([1]; dose 10 μg/cm^3) | activation at 1 µg/mL [1, 6] | Coronary output, Duration in mins. ([1]; dose 1 μg/cm^3) | activation at 100 µg/mL ([1]; Oryctolagus cuniculus, 1 min, dose 100 μg/cm^3, aortic canal, 1 cm^3 for 1 minute, increase (+), read-out: Coronary output, Variations in %) | Coronary output, Duration in mins. ([1]; dose 100 μg/cm^3)
 |  | Cc1cc(OCC(O)CNC(C)C)c(C2CC3CCC2(C)C3(C)C)cc1C (centres unmarked) [Example 11, 1-isopropylamino 3-(2'-isobornyl-4',5'-dimethylphenoxy) propan-2-ol] | 72% | 210% | 5 min | 12 min |  |  |  | 
7.5 µg/mL (≈ 24.9 µM) | 5 µg/mL (≈ 16.6 µM) | Cc1cc(OCCN)c(C2CC3CCC2(C)C3(C)C)cc1C (centres unmarked) [Example 1, 2-(2'-isobornyl-4',5'-dimethylphenoxy) ethylamine] | 37% | 55% | 5 min | 5 min |  |  |  | 
 | 5 µg/mL (≈ 13.4 µM) | Cc1cc(OCC(O)CNC(C)C)c(C2CC3CC2C(C)C3(C)C)cc1C (centres unmarked) [Example 6, 3-(2'-isocamphyl-4',5'-dimethylphenoxy)-1-isopropylamino propan-2-ol] | 36% | 66% | 15 min | 9 min |  |  |  | 
5 µg/mL (≈ 15.1 µM) | 5 µg/mL (≈ 15.1 µM) | Cc1cc(OCC(O)CN)c(C2CC3CCC2(C)C3(C)C)cc1C (centres unmarked) [Example 4, 3-(2'-isobornyl-4,5'-dimethylphenoxy)-1-amino propan-2-ol] | 127% | 140% | 15 min | 12 min |  |  |  | 
7.5 µg/mL (≈ 23.3 µM) | 7.5 µg/mL (≈ 23.3 µM) | Cc1cc(OCCN)c(C2CC3CCC2(C)C3(C)C)cc1Cl (centres unmarked) [Example 10, 2-(2-isobornyl-4-chloro-5-methylphenoxy) ethylamine] | 60% |  | > 15 min |  | 34% | > 15 min |  | 
5 µg/mL (≈ 14.2 µM) | 7.5 µg/mL (≈ 21.3 µM) | CC1(C)C2CCC1(C)C(c1cc(Br)ccc1OCCN)C2 (centres unmarked) [Example 3, 2-(2'-isobornyl-4'-bromophenoxy) ethylamine] | 36% |  | > 15 min |  | 4% | 3 min |  | 
7.5 µg/mL (≈ 24.7 µM) | 20 µg/mL (≈ 65.9 µM) | CC1(C)C2CCC1(C)C(c1ccccc1OCC(O)CN)C2 (centres unmarked) [Example 8, 1-Amino 3-(2'-isobornylphenoxy) propan-2-ol] | 24% | 63% | 6 min | 12 min |  |  |  | 
30 µg/mL (≈ 86.8 µM) | 10 µg/mL (≈ 28.9 µM) | Cc1cc(OCCNCCO)c(C2CC3CCC2(C)C3(C)C)cc1C (centres unmarked) [Example 7, N-hydroxyethyl-2-(2'-isobornyl-4',5'-dimethylphenoxy) ethylamine] | 51% | 109% | > 15 min | > 15 min |  |  |  | 
5 µg/mL (≈ 15.7 µM) | 7.5 µg/mL (≈ 23.6 µM) | Cc1ccc(OCC(O)CN)c(C2CC3CC2C(C)C3(C)C)c1 (centres unmarked) [Example 12, 1-amino 3-(2'-isocamphyl-4'-methylphenoxy) propan-2-ol] |  |  |  |  |  |  | 31% | 4 min
5 µg/mL (≈ 15.1 µM) | 5 µg/mL (≈ 15.1 µM) | Cc1cc(OCC(O)CN)c(C2CC3CC2C(C)C3(C)C)cc1C (centres unmarked) [Example 5, 3-(2'-isocamphyl-4',5'-dimethylphenoxy)-1-amino propan-2-ol] | 70% |  | > 15 min |  | 13% | 2 min |  | 
10 µg/mL (≈ 27.3 µM) | 5 µg/mL (≈ 13.6 µM) | Cc1cc(OCCN)c(C2CC3CCC2(C)C3(C)C)cc1Br (centres unmarked) [Example 2, 2-(2'-isobornyl-4'-bromo-5'-methylphenoxy) ethylamine] | 39% |  | > 15 min |  | 23% | > 15 min |  | 
 |  | CC(C)NCC(O)COc1ccccc1C1CC2CCC1(C)C2(C)C (centres unmarked) [Example 9, 1-Isopropylamino 3-(2'-isobornylphenoxy) propan-2-ol] | 95% | 102% | 4 min | 4 min |  |  |  | 
